In the CheMixHub viscosity set:
Several values for one entry are separate records, joined by “and”; a condition that tells them apart may be missing. Equal entries are not always repeated.

Test: xn = mol fraction of the nth substance listed

C=Cc1ccccc1 + CCCCO
viscosity [mPa·s], 101.33 kPa
Conditions | x1 = 0.0999 | x1 = 0.2019 | x1 = 0.2994 | x1 = 0.3982 | x1 = 0.5226 | x1 = 0.602 | x1 = 0.703 | x1 = 0.7942 | x1 = 0.8935
298.15 K | 1.971 | 1.644 | 1.368 | 1.165 | 0.969 | 0.913 | 0.821 | 0.772 | 0.729
303.15 K | 1.809 | 1.47 | 1.23 | 1.052 | 0.885 | 0.83 | 0.767 | 0.721 | 0.681
308.15 K | 1.636 | 1.327 | 1.104 | 0.95 | 0.811 | 0.762 | 0.693 | 0.66 | 0.63

O=[N+]([O-])[O-].O=[N+]([O-])[O-].[Cd+2] + O
viscosity [mPa·s], 101.3 kPa
Conditions | x1 = 0.0009 | x1 = 0.0018 | x1 = 0.00893 | x1 = 0.0177 | x1 = 0.02631 | x1 = 0.03478 | x1 = 0.05127 | x1 = 0.06722 | x1 = 0.08263
293.15 K | 1.02 | 1.036 | 1.166 | 1.363 | 1.607 | 1.912 | 2.746 | 3.964 | 5.664
298.15 K | 0.9069 | 0.9215 | 1.041 | 1.219 | 1.437 | 1.708 | 2.443 | 3.496 | 4.949
303.15 K | 0.8129 | 0.8263 | 0.936 | 1.097 | 1.293 | 1.537 | 2.189 | 3.11 | 4.364
308.15 K | 0.7336 | 0.7459 | 0.8471 | 0.994 | 1.171 | 1.391 | 1.975 | 2.789 | 3.882
313.15 K | 0.6664 | 0.678 | 0.7712 | 0.9059 | 1.067 | 1.267 | 1.792 | 2.521 | 3.48
318.15 K | 0.6085 | 0.6193 | 0.7057 | 0.8296 | 0.977 | 1.16 | 1.637 | 2.288 | 3.143
323.15 K | 0.5582 | 0.568 | 0.6484 | 0.7627 | 0.8979 | 1.066 | 1.502 | 2.093 | 2.855

BrC(Br)Br + CC(C)CCO
viscosity [mPa·s], 101.33 kPa
Conditions | x1 = 0.099 | x1 = 0.203 | x1 = 0.299 | x1 = 0.422 | x1 = 0.498 | x1 = 0.599 | x1 = 0.702 | x1 = 0.803 | x1 = 0.9
298.15 K | 3.419 | 3.063 | 2.77 | 2.415 | 2.265 | 2.111 | 1.957 | 1.888 | 1.873
303.15 K | 2.937 | 2.643 | 2.384 | 2.145 | 2.025 | 1.909 | 1.795 | 1.739 | 1.737
308.15 K | 2.527 | 2.306 | 2.111 | 1.905 | 1.815 | 1.729 | 1.647 | 1.61 | 1.605

CCCCCCCCO + CS(C)=O
101 kPa
Conditions | viscosity [mPa·s]
303.15 K, x2 = 0.1888 | 4.267
303.15 K, x2 = 0.3612 | 3.296
303.15 K, x2 = 0.519 | 2.593
303.15 K, x2 = 0.6642 | 2.26
303.15 K, x2 = 0.7982 | 1.965
303.15 K, x2 = 0.9223 | 1.757
313 K, x2 = 0.1243 | 3.69
313 K, x2 = 0.2177 | 3.282
313 K, x2 = 0.4192 | 2.668
313 K, x2 = 0.5194 | 2.442
313 K, x2 = 0.6221 | 2.22
313 K, x2 = 0.714 | 2.034
313 K, x2 = 0.8145 | 1.894
313 K, x2 = 0.902 | 1.664

BrC(Br)Br + CCCCCCCO
viscosity [mPa·s], 101.3 kPa
Conditions | x1 = 0.102 | x1 = 0.204 | x1 = 0.301 | x1 = 0.405 | x1 = 0.503 | x1 = 0.597 | x1 = 0.699 | x1 = 0.801 | x1 = 0.901
298.15 K | 5.359 | 4.647 | 4.131 | 3.544 | 3.133 | 2.755 | 2.44 | 2.17 | 1.982
303.15 K | 4.524 | 3.988 | 3.547 | 3.093 | 2.773 | 2.457 | 2.199 | 1.992 | 1.844
308.15 K | 3.863 | 3.422 | 3.084 | 2.712 | 2.461 | 2.205 | 1.99 | 1.822 | 1.713

O=C([O-])CC(O)(CC(=O)[O-])C(=O)[O-].[NH4+].[NH4+].[NH4+] + O
viscosity, 101 kPa
Conditions | 298.15 K | 308.15 K | 318.15 K
x1 = 0.004 | 0.9957 mPa·s | 0.814 mPa·s | 0.685 mPa·s
x1 = 0.007 | 1.13 mPa·s | 0.923 mPa·s | 0.7741 mPa·s
x1 = 0.01 | 1.283 mPa·s and 1.49 mPa·s | 1.048 mPa·s and 1.211 mPa·s | 0.8784 mPa·s and 1.01 mPa·s

CC(C)(C)N + CCOCCO
308.15 K, 101 kPa
Conditions | viscosity [mPa·s]
x2 = 0.1082 | 0.5474
x2 = 0.2145 | 0.6798
x2 = 0.3189 | 0.8102
x2 = 0.4214 | 0.9309
x2 = 0.5221 | 1.046
x2 = 0.6211 | 1.149
x2 = 0.7182 | 1.245
x2 = 0.8138 | 1.327
x2 = 0.9077 | 1.399

CCCCCCCl + C1COCCO1
303.15 K, 101.3 kPa
Conditions | viscosity [mPa·s]
x2 = 0.1087 | 0.6686
x2 = 0.2953 | 0.7084
x2 = 0.5004 | 0.7719
x2 = 0.6974 | 0.8637
x2 = 0.9013 | 1.004

NCCOCCO + O
viscosity [mPa·s], 101.33 kPa
Conditions | 298.15 K | 313.15 K | 323.15 K
x1 = 0.0552 | 2.4 | 1.452 | 1.16
x1 = 0.1002 | 3.874 | 2.419 | 1.857
x1 = 0.1447 | 6.344 | 3.715 | 2.737
x1 = 0.2249 | 11.4 | 6.182 | 4.438
x1 = 0.2997 | 16.21 | 8.343 | 5.773
x1 = 0.3995 | 21.35 | 10.7 | 7.293
x1 = 0.5392 | 25.2 | 12.28 | 8.273
x1 = 0.6075 | 26.8 | 13.19 | 8.903
x1 = 0.7021 | 27.72 | 13.65 | 9.182
x1 = 0.8071 | 27.7 | 13.76 | 9.315
x1 = 0.9024 | 27.4 | 13.65 | 9.257

CC(=O)c1ccc(Cl)cc1 + CN(C)c1ccccc1
viscosity [mPa·s], 101 kPa
Conditions | 303.15 K | 308.15 K
x2 = 0.0685 | 2.238 | 2.175
x2 = 0.1369 | 2.129 | 2.065
x2 = 0.2085 | 2.019 | 1.954
x2 = 0.2801 | 1.913 | 1.849
x2 = 0.3517 | 1.816 | 1.752
x2 = 0.4754 | 1.663 | 1.597
x2 = 0.551 | 1.576 | 1.511
x2 = 0.6023 | 1.53 | 1.46
x2 = 0.6538 | 1.478 | 1.409
x2 = 0.7316 | 1.404 | 1.335
x2 = 0.7852 | 1.355 | 1.288
x2 = 0.8376 | 1.307 | 1.243
x2 = 0.9175 | 1.24 | 1.177

CCCCCCCCO + CCCCCCCC
298.15 K, 101.33 kPa
Conditions | viscosity [mPa·s]
x1 = 0.0015 | 0.491
x2 = 0.0566 | 6.369
x2 = 0.1294 | 5.058
x2 = 0.2321 | 3.637
x2 = 0.353 | 2.469
x2 = 0.4724 | 1.705
x2 = 0.527 | 1.452
x2 = 0.6297 | 1.094
x2 = 0.778 | 0.764
x2 = 0.8294 | 0.683
x2 = 0.9163 | 0.572

[Cl-].[Rb+] + O
310.15 K, 101 kPa
Conditions | viscosity [mPa·s]
x1 = 0.000184 | 0.6947
x1 = 0.000842 | 0.6943
x1 = 0.002695 | 0.6937
x1 = 0.003302 | 0.6937
x1 = 0.003679 | 0.6938
x1 = 0.005197 | 0.6944
x1 = 0.005988 | 0.695

CCCCCCCCO + CCCCCCCO
viscosity [mPa·s]
Conditions | 293.15 K | 298.15 K | 308.15 K | 318.15 K
101.33 kPa, x2 = 0.1671 | 8.821 | 7.374 | – | –
101.33 kPa, x2 = 0.3071 | 8.507 | 7.128 | – | –
101.33 kPa, x2 = 0.4819 | 8.113 | 6.847 | – | –
101.33 kPa, x2 = 0.6319 | 7.827 | 6.588 | – | –
101.33 kPa, x2 = 0.6868 | 7.688 | 6.471 | – | –
101.33 kPa, x2 = 0.8784 | 7.302 | 6.161 | – | –
101.8 kPa, x2 = 0.1105 | – | 7.442 | 5.362 | 3.936
101.8 kPa, x2 = 0.3246 | – | 7.122 | 5.139 | 3.78
101.8 kPa, x2 = 0.5285 | – | 6.742 | 4.884 | 3.607
101.8 kPa, x2 = 0.723 | – | 6.415 | 4.676 | 3.463
101.8 kPa, x2 = 0.9101 | – | 6.128 | 4.474 | 3.324

BrC(Br)Br + CCCO
viscosity [mPa·s], 101 kPa
Conditions | x1 = 0.0998 | x1 = 0.1979 | x1 = 0.2988 | x1 = 0.4005 | x1 = 0.5 | x1 = 0.5953 | x1 = 0.69 | x1 = 0.7999 | x1 = 0.9007
298.15 K | 1.964 | 1.932 | 1.879 | 1.813 | 1.782 | 1.767 | 1.768 | 1.786 | 1.853
303.15 K | 1.737 | 1.716 | 1.681 | 1.647 | 1.623 | 1.621 | 1.632 | 1.674 | 1.734
308.15 K | 1.543 | 1.528 | 1.506 | 1.481 | 1.481 | 1.49 | 1.505 | 1.559 | 1.618
313.15 K | 1.363 | 1.363 | 1.354 | 1.339 | 1.352 | 1.379 | 1.393 | 1.448 | 1.515

CCC(C)(C)OC + C1CCCC1
viscosity [mPa·s], 100 kPa
Conditions | x1 = 0.0512 | x1 = 0.1014 | x1 = 0.2107 | x1 = 0.3001 | x1 = 0.4033 | x1 = 0.5001 | x1 = 0.6006 | x1 = 0.7352 | x1 = 0.8928 | x1 = 0.9498
293.15 K | 0.429 | 0.429 | 0.431 | 0.432 | 0.434 | 0.435 | 0.436 | 0.437 | 0.439 | 0.439
303.15 K | 0.386 | 0.388 | 0.392 | 0.395 | 0.398 | 0.401 | 0.404 | 0.408 | 0.413 | 0.414
313.15 K | 0.349 | 0.35 | 0.353 | 0.355 | 0.357 | 0.359 | 0.361 | 0.364 | 0.367 | 0.368
